Measurements taken from article PMC4837355, “Receptor residence time trumps drug-likeness and oral bioavailability in determining efficacy of complement C5a antagonists” (Scientific Reports, 2016).
Where “and” joins values, the source holds several entries; their conditions need not be identical. Equal values may be shown once. Read-outs that look alike come from different tables or passages of the source.

Experiments:
[1] = target: T1, C5aR (Rattus norvegicus, UniProt P97520); test: C5aR-PA-induced rat paw oedema; format: in vivo, male Wistar rats; details: for Effect on paw swelling after 2 h / Reduction in paw swelling: 30 mg/kg p.o.; for Reduction in paw swelling: at 30 min post-injection of C5aR-PA
T1 construct: C5aR-mediated rat paw oedema was induced by intraplantar administration of 350 μg C5aR-PA per hind paw; from tissue; host or cells: living male Wistar rats (hind paw)
T1 sequence (P97520 1-352): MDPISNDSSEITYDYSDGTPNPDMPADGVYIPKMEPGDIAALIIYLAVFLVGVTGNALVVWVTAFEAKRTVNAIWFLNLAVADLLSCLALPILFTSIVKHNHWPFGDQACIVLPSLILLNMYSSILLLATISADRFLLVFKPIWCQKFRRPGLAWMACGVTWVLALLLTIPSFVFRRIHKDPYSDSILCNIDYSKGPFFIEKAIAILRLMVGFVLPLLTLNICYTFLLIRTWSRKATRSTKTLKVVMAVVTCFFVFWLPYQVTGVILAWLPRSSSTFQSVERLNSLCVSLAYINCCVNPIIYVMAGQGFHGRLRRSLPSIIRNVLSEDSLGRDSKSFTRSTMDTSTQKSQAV
Method: (§1) Paw oedema was induced in male Wistar rats by intraplantar administration of C5aR-PA (350 μg per paw in 100 μL of saline control). Paw swelling (% area change from baseline) was recorded at indicated timepoints. […] C5aR antagonist was administering as an intravenous dose (1 mg/kg via an implanted jugular vein catheter in 50:50 DMSO/saline) versus an oral dose (10 mg/kg in olive oil, via gavage). Plasma was collected at various time points and analyzed. Error bars are means ± SEM normalized to maximal swelling of saline control. *p < 0.05, **p < 0.01 and ***p < 0.001 by student t-test.
C5aR-mediated rat paw oedema was induced by intraplantar administration of 350 μg C5aR-PA per hind paw (Supplementary Fig. 5A). […] Male Wistar rats (6–8 wk, 250 ± 50 g) were bred at the Animal Resources Centre (Canning Vale, Australia) and housed post-shipment at the Australian Institute for Bioengineering and Nanotechnology (University of Queensland, Brisbane). […] After specific time-points, C5aR-PA was administered into the right hind paw pad (350 μg in 100 μL saline, i.pl). The left hind paw acted as a control, receiving saline only (100 μL). Rear paw thickness and width were measured at 1 h (and periodically over 4 h) post-injection using digital callipers (World Precision Instruments, Sarasota, FL, USA) and swelling was expressed as area (mm^2; thickness × width) and plotted as percentage change from baseline of each individual paw. […] Plasma was collected at various time points (0, 5, 15, 30 min, 1, 2, 3, 4, 6 and 8 h) from the jugular vein catheter and analyzed for antagonist concentrations using LCMS as described. The animal ethics committee of The University of Queensland approved all experiments according to NHMRC guidelines for the care and use of laboratory animals and in accordance with ARRIVE guidelines for reporting experiments involving animals. A total of N animals were used in each experiment as described.

[2] = Pharmacokinetics and oral bioavailability in rats (LCMS of plasma); details: rat; for F (oral availability): 1 mg/kg i.v. versus 10 mg/kg p.o.
Method: as §1
Male Wistar rats (6–8 wk, 250 ± 50 g) were bred at the Animal Resources Centre (Canning Vale, Australia) and housed post-shipment at the Australian Institute for Bioengineering and Nanotechnology (University of Queensland, Brisbane). […] After specific time-points, C5aR-PA was administered into the right hind paw pad (350 μg in 100 μL saline, i.pl). The left hind paw acted as a control, receiving saline only (100 μL). Rear paw thickness and width were measured at 1 h (and periodically over 4 h) post-injection using digital callipers (World Precision Instruments, Sarasota, FL, USA) and swelling was expressed as area (mm^2; thickness × width) and plotted as percentage change from baseline of each individual paw. […] Plasma was collected at various time points (0, 5, 15, 30 min, 1, 2, 3, 4, 6 and 8 h) from the jugular vein catheter and analyzed for antagonist concentrations using LCMS as described. The animal ethics committee of The University of Queensland approved all experiments according to NHMRC guidelines for the care and use of laboratory animals and in accordance with ARRIVE guidelines for reporting experiments involving animals. A total of N animals were used in each experiment as described.
Supplementary Table 1. Pharmacokinetics parameters of C5aR antagonists in
aC5aR antagonist were administered 1 mg/kg i.v. and 10 mg/kg p.o.
Vdss; volume of distribution steady
Cmax; maximal plasma concentration reached
Tmax; time of maximal Cmax
F; Fraction of intact compound absorbed to plasma (oral availability)
Supplementary Table 2. Primer sequences for target genes.

[3] = test system: C5aR; details: inhibition of Ca2+ release versus 0.1nM rhC5a on neutrophils; read-out: Antagonist IC50; cited from earlier work
[4] = test system: C5a-induced neutropenia; design: method as in PMID 12384495; details: cited from earlier work
[5] = target: T2, C5aR (Homo sapiens, UniProt P21730); test: Intracellular calcium release assay in HMDM against rhC5a; details: for IC50: HMDM calcium release
T2 sequence (P21730 1-350): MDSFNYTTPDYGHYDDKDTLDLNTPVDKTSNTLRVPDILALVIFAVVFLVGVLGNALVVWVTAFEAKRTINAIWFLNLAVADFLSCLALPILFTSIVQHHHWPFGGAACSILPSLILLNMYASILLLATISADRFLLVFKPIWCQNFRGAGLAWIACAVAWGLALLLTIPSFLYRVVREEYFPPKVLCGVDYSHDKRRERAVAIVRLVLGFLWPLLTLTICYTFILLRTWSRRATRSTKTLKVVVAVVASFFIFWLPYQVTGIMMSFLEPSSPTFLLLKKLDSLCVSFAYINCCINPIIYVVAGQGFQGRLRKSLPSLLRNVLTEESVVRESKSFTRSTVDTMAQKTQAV
Method: The concentration-response curves for calcium mobilization induced by rhC5a were determined in the presence of escalating concentrations of each of the three antagonists (Fig. 2D–F). […] Error bars are means ± SEM of three independent experiments (n = 3).
Figure 3 Dependence of antagonist potencies (IC50) on C5a concentration in human monocyte-derived macrophages. […] Calculated pIC50 ± SEM and IC50 values for the three C5aR antagonists are summarized in the table versus concentration of C5a. Error bars are means ± SEM of three independent experiments (n = 3).

[6] = target: T2, C5aR
Method: A scintillation proximity assay was used to measure the affinity of C5aR antagonists as described[39]. […] Radioligand binding was then analyzed using a Microbeta scintillation counter (PerkinElmer).

[7] = in vivo; cited from earlier work
[8] = test system: C5aR; design: method as in PMID 18595693; details: inhibition of Ca2+ release versus […] rhC5a on U937 cells; read-out: Antagonist IC50; cited from earlier work
[9] = target: T2, C5aR; test: C5a-induced inflammatory gene expression in HMDM (real-time PCR); details: 1 μM antagonist, 10 nM C5a at 16 h post-antagonist treatment
Method: Real-time PCR analyses were conducted to further check the effect of residence time in other assays. […] Gene expression was measured by real-time PCR, normalized against 18S and converted to fold change relative to control.
RNA was extracted from cells using ISOLATE II RNA Kit (Bioline) following manufacturer’s instructions. Real-time PCR was performed using 7900HT real-time with SYBR® Green PCR master mix (Applied Biosystems) and primers. Relative gene expression was normalized against 18S rRNA expression and expressed as fold change against control samples.

[10] = target: T2, C5aR; test: Washout residence time, calcium release in antagonist-pretreated HMDM; details: HMDM pre-treated 1 μM antagonist 1 h, washed, challenged with 3 nM C5a
Source text: Intracellular calcium release was induced in HMDM as described[40] and measured using a FLIPR instrument (Molecular Devices).

[11] = target: T2, C5aR; test: In vitro migration (chemotaxis) assay of HMDM; format: cell-based; design: monocytes were isolated from buffy coats of anonymous donors; endogenous in cells; host or cells: primary human monocyte-derived macrophages (CD14+ monocytes from donor buffy coats, matured with M-CSF); details: antagonist 1 μM, 1 h then washed; 3 nM C5a for 16 h
Source text: Antagonists with a short residence time will be ineffective in this assay, because once the antagonist has dissociated from C5aR, C5a immediately binds and induces migration. […] Chemotactic index is expressed as fold change against control. […] Excess unbound antagonists were washed with serum-free medium and HMDM (0.1 × 10^6 cells/mL) then seeded into 5 μm Transwell inserts (Corning) creating a modified Boyden chamber. […] Migrated cells on the lower side of the membrane were stained with DAPI and counted. The chemotactic index was expressed as fold change versus control.

[12] = male, Wistar, plasma, intravenous, 1 mg/kg
[13] = male, Wistar, plasma, iv, 1 mg/kg
[14] = male, Wistar, plasma, oral, 10 mg/kg
[15] = male, Wistar, plasma, po, 10 mg/kg

Q: For `COc1ccc2c(c1)C(C(=O)N(Cc1ccc(N(C)C)cc1)c1ccc(C(C)C)cc1)CCC2` (stereo not drawn) [W54011], which “Block of C5aR-PA-induced paw swelling” value ([1]; 5 mg/kg per oral) is on record?
A: did not block

Q: And the “Effect on C5aR-PA-induced paw swelling” value ([1]; 10 mg/kg p.o.)?
A: did not have much effect

Q: What about the “Effect on paw swelling after 2 h” value [1] of the same molecule?
A: no longer effective

Q: And the “Reduction in paw swelling” value [1]?
A: 35%

Q: What about the half-life ([2]; male, Wistar, plasma) of the same molecule?
A: 124 min

Q: And the Vd [2, 12]?
A: 18.3 L/kg

Q: What about the clearance [2, 12] of the same molecule?
A: 82.8 mL/min/kg

Q: And the AUC [2, 13]?
A: 212 ng·h/mL

Q: What about the Cmax [2, 14] of the same molecule?
A: 484 ng/mL

Q: And the AUC [2, 15]?
A: 1570 ng·h/mL

Q: And the bioavailability [2, 15]?
A: 74.3%

Q: What about the “F (oral availability)” value [2] of the same molecule?
A: ~ 74%

Q: And the IC50 [3]?
A: 3 nM

Q: What about the “Doses blocking C5a-induced gerbil neutropenia” value [4] of the same molecule?
A: 3 to 30 mg/kg

Q: And the IC50 ([5]; IC50, C5a 3 nM)?
A: 9 nM

Q: What about the IC50 ([5]; IC50, C5a 10 nM) of the same molecule?
A: 24 nM

Q: What about the IC50 ([5]; IC50, C5a 30 nM) of the same molecule?
A: 55 nM

Q: And the IC50 ([5]; IC50, C5a 100 nM)?
A: 350 nM

Q: What about the IC50 ([5]; IC50, C5a 300 nM) of the same molecule?
A: 1460 nM

Q: And the IC50 ([5]; pIC50 ± SEM, C5a 1 nM)?
A: 3.98 nM

Q: And the IC50 ([5]; pIC50 ± SEM, C5a 3 nM)?
A: 7.94 nM

Q: And the Ki [6]?
A: 79.4 nM

Q: Which Tmax ([2]; male, Wistar, in vivo, po) does the source give for `CC(=O)N[C@@H](Cc1ccccc1)C(=O)N[C@H]1CCCNC(=O)[C@H](CCCNC(=N)N)NC(=O)[C@H](Cc2c[nH]c3ccccc23)NC(=O)[C@@H](CC2CCCCC2)NC(=O)[C@@H]2CCCN2C1=O` [3D53, Ac-Phe-[Orn-Pro-D-Cha-Trp-Arg]] here?
A: 50 min

Q: And the Cmax ([2]; in vivo)?
A: 17.5 ng/mL

Q: What about the Vd ([2]; in vivo) of the same molecule?
A: 4.1 L/kg

Q: And the clearance ([2]; in vivo)?
A: 52.1 mL/min/kg

Q: What about the half-life ([2]; in vivo) of the same molecule?
A: 21.6 min

Q: And the AUC ([2]; in vivo, iv, 1 mg/kg)?
A: 323 ng·h/mL

Q: And the AUC ([2]; in vivo, po, 10 mg/kg)?
A: 76.6 ng·h/mL

Q: What about the Safety and tolerability [7] of the same molecule?
A: safe and well tolerated

Q: What does the source list for `CCc1cccc(CC)c1-c1cc(OC(C)C)c2c(n1)CCCC2Nc1ccccc1CCO` (stereo not drawn) [JJ47]?
A: Effect on paw swelling after 2 h [1]: not much different to W54011; Reduction in paw swelling [1]: 15%; half-life ([2]; male, Wistar, plasma): 43.2 min; Vd [2, 12]: 3.5 L/kg; clearance [2, 12]: 41 mL/min/kg; AUC [2, 13]: 410 ng·h/mL; Cmax [2, 14]: 127 ng/mL; AUC [2, 15]: 501 ng·h/mL; F (oral availability) [2]: 12.2% and ~ 12%; IC50 [8]: 7 nM; Kb [5]: 5.01 nM; Antagonist mechanism ([5]; C5a concentration-response curves with escalating antagonist, HMDM): surmountable antagonists; IC50 ([5]; IC50, C5a 1 nM): 2 nM; IC50 ([5]; IC50, C5a 3 nM): 10 nM; IC50 ([5]; IC50, C5a 10 nM): 122 nM; IC50 ([5]; IC50, C5a 30 nM): 509 nM; IC50 ([5]; IC50, C5a 100 nM): 632 nM; IC50 ([5]; IC50, C5a 300 nM): 1070 nM; Schild plot slope ([5]; against rhC5a, calcium release, HMDM): 0.94; IC50 ([5]; pIC50 ± SEM, C5a 1 nM): 1.58 nM; Block of C5a-mediated expression of TNF, IL1B, CCL3 and PTGS2 [9]: did not; Half-life t1/2 ± SEM (residence time on C5aR) [10]: 36 ± 12 min; Ki [6]: 316 nM; Block of C5a-induced migration [11]: not effective antagonists
